The values that follow come from ChEMBL document CHEMBL5726766, “Sulfonamide compounds as voltage-gated sodium channel modulators” (2019).

This assay is described as follows: Membrane potential dye assay: HEK-293 cells overexpressing the channel of interest were seeded in a 96-well plate at a density of 30000 cells/well and incubated at 37° C./5% CO2 for 48 hr. The assay was carried out using the Red Membrane Potential Dye (Molecular Devices) following the manufacturer's instructions. Briefly, the cells were incubated with 1× red membrane potential dye for 1.5 hour. The cells were then treated with various concentrations of the test compounds for 15-20 min followed by depolarization with 10-30 μM Veratridine. The fluorescence was read following excitation at 510-545 nm and emission at 565-625 nm in FLIPR. The “max-min” fluorescence values were used to calculate the % inhibition. The settings on record: HEK293.
As a reminder, the IC50 is the concentration needed to halve the response being measured. Consider `O=S(=O)(Nc1cccc(F)n1)c1ccc2c(c1)OCC[C@@H]2c1ccc(C(F)(F)F)cc1-n1ccnn1`, for which the IC50 was more than 10 µM. Regarding `O=S(=O)(Nc1ncc(F)cn1)c1ccc2c(c1)OCC[C@@H]2c1ccc(C(F)(F)F)cc1-n1ccnn1`, the IC50 was more than 10 µM. Regarding `O=S(=O)(Nc1ccncn1)c1ccc2c(c1)OCC[C@@H]2c1ccc(C(F)(F)F)cc1-n1ccnn1`, the IC50 was more than 10 µM. With `O=S1(=O)CCN(c2cc(C(F)(F)F)ccc2[C@H]2CCOc3cc(S(=O)(=O)Nc4ncccn4)ccc32)CC1`, the IC50 was more than 10 µM. Take `O=C(O)c1ccc(-c2cc(C(F)(F)F)ccc2[C@H]2CCOc3cc(S(=O)(=O)Nc4ncc(F)cn4)ccc32)cc1`: the IC50 is more than 10 µM. In the case of `CCOc1ccc(-c2cc(C(F)(F)F)ccc2[C@H]2CCOc3cc(S(=O)(=O)Nc4ncc(F)cn4)ccc32)cn1`, the IC50 was more than 10 µM. Turning to `CCCc1cc(C(F)(F)F)ccc1[C@@H]1CCOc2cc(S(=O)(=O)Nc3ncc(F)cn3)ccc21`, the IC50 is more than 10 µM. The same measure for `O=C1CCCN1c1cc(C(F)(F)F)ccc1[C@@H]1CCOc2cc(S(=O)(=O)Nc3ncc(F)cn3)ccc21`: more than 10 µM; for `O=S(=O)(Nc1ncccn1)c1ccc2c(c1)OCC[C@H]2c1ccc(C(F)(F)F)cc1N1CCOCC1`: more than 10 µM. With `O=S(=O)(Nc1cccc(F)n1)c1ccc2c(c1)OCC[C@H]2c1ccc(C(F)(F)F)cc1-n1ccnn1`, the IC50 was more than 10 µM. `O=S(=O)(Nc1cccc(F)n1)c1ccc2c(c1)OCC[C@H]2c1ccc(C(F)(F)F)cc1-n1cccn1`: the IC50 is more than 10 µM. The same measure for `O=C1COCCN1c1cc(C(F)(F)F)ccc1[C@H]1CCOc2cc(S(=O)(=O)Nc3ncccn3)ccc21`: more than 10 µM; for `O=S(=O)(Nc1cccc(F)n1)c1ccc2c(c1)OCC[C@H]2c1ccc(C(F)(F)F)cc1OC1CCOCC1`: 3.65 µM; for `Cc1nc(-c2cc(C(F)(F)F)ccc2[C@@H]2CCOc3cc(S(=O)(=O)Nc4cccc(F)n4)ccc32)cs1`: more than 10 µM. Turning to `O=S(=O)(Nc1ccncn1)c1ccc2c(c1)OCC[C@H]2c1ccc(C(F)(F)F)cc1-n1ccnn1`, the IC50 was more than 10 µM. With `COc1cc(C(F)(F)F)ccc1[C@@H]1CCOc2cc(S(=O)(=O)Nc3cccc(F)n3)ccc21`, the IC50 was more than 10 µM. On to `O=S(=O)(Nc1ncc(F)cn1)c1ccc2c(c1)OCC[C@H]2c1ccc(C(F)(F)F)cc1-n1ccnn1`, for which the IC50 was more than 10 µM. Then `CCCc1cc(C(F)(F)F)ccc1[C@H]1CCOc2cc(S(=O)(=O)Nc3ncc(F)cn3)ccc21`, with more than 10 µM. Consider `CS(=O)(=O)CCc1cc(C(F)(F)F)ccc1[C@@H]1CCOc2cc(S(=O)(=O)Nc3ccncn3)ccc21`, for which the IC50 is more than 10 µM.

Turning to `O=S1(=O)CCN(c2cc(C(F)(F)F)ccc2[C@@H]2CCOc3cc(S(=O)(=O)Nc4ncccn4)ccc32)CC1`, the IC50 was more than 10 µM.

For `Cc1nc(-c2cc(C(F)(F)F)ccc2[C@@H]2CCOc3cc(S(=O)(=O)Nc4cccnn4)ccc32)co1`, the 50% inhibitory concentration (IC50) is more than 10 µM. For the molecule `O=S(=O)(Nc1ncccn1)c1ccc2c(c1)OCC[C@H]2c1ccc(C(F)(F)F)cc1OC1CCOCC1`, the IC50 is more than 10 µM. Then `CS(=O)(=O)CCc1cc(C(F)(F)F)ccc1[C@H]1CCOc2cc(S(=O)(=O)Nc3ncccn3)ccc21`, with more than 10 µM. As to `CC(C)Oc1ccc(-c2cc(C(F)(F)F)ccc2[C@H]2CCOc3cc(S(=O)(=O)Nc4ncc(F)cn4)ccc32)cn1`, the IC50 was more than 10 µM. On to `O=S(=O)(Nc1ncccn1)c1ccc2c(c1)OCC[C@H]2c1ccc(C(F)(F)F)cc1-c1ccc(F)cn1`, for which the IC50 is more than 10 µM. As to `O=S(=O)(Nc1ncccn1)c1ccc2c(c1)OCC[C@H]2c1ccc(C(F)(F)F)cc1C1CCOCC1`, the 50% inhibitory concentration (IC50) is more than 10 µM. The same measure for `Cc1nc(-c2cc(C(F)(F)F)ccc2[C@@H]2CCOc3cc(S(=O)(=O)Nc4ccncn4)ccc32)cs1`: more than 10 µM; for `Cc1nc(-c2cc(C(F)(F)F)ccc2[C@H]2CCOc3cc(S(=O)(=O)Nc4cccnn4)ccc32)cs1`: more than 10 µM; for `CS(=O)(=O)CCc1cc(C(F)(F)F)ccc1[C@H]1CCOc2cc(S(=O)(=O)Nc3cccc(F)n3)ccc21`: more than 10 µM.

Consider `COCCCc1cc(C(F)(F)F)ccc1[C@@H]1CCOc2cc(S(=O)(=O)Nc3ncccn3)ccc21`, for which the IC50 is more than 10 µM.

With `O=S(=O)(Nc1cccnn1)c1ccc2c(c1)OCC[C@H]2c1ccc(C(F)(F)F)cc1OC1CCOCC1`, the half-maximal inhibitory concentration (IC50) is more than 10 µM. Regarding `COCCCOc1cc(C(F)(F)F)ccc1[C@@H]1CCOc2cc(S(=O)(=O)Nc3ncccn3)ccc21`, the IC50 is more than 10 µM. Take `COCCCCc1cc(C(F)(F)F)ccc1[C@@H]1CCOc2cc(S(=O)(=O)Nc3ncccn3)ccc21`: the half-maximal inhibitory concentration (IC50) is more than 10 µM. Turning to `Cc1nc(-c2cc(C(F)(F)F)ccc2[C@@H]2CCOc3cc(S(=O)(=O)Nc4ncccn4)ccc32)cs1`, the concentration for half-maximal inhibition (IC50) was more than 10 µM.

In the case of `CCCc1cc(C(F)(F)F)ccc1[C@@H]1CCOc2cc(S(=O)(=O)Nc3ncccn3)ccc21`, the IC50 was more than 10 µM. The same measure for `Cc1nc(-c2cc(C(F)(F)F)ccc2[C@H]2CCOc3cc(S(=O)(=O)Nc4ncccn4)ccc32)cs1`: more than 10 µM. Consider `O=C1COCCN1c1cc(C(F)(F)F)ccc1[C@@H]1CCOc2cc(S(=O)(=O)Nc3ncccn3)ccc21`, for which the IC50 was more than 10 µM. The same measure for `O=S(=O)(Nc1ccncn1)c1ccc2c(c1)OCC[C@H]2c1ccc(C(F)(F)F)cc1OC1CCOCC1`: more than 10 µM; for `O=C(O)c1ccc(-c2cc(C(F)(F)F)ccc2[C@@H]2CCOc3cc(S(=O)(=O)Nc4ncc(F)cn4)ccc32)cc1`: more than 10 µM; for `O=S(=O)(Nc1cccnn1)c1ccc2c(c1)OCC[C@@H]2c1ccc(C(F)(F)F)cc1-c1ccc(F)cn1`: more than 10 µM. Turning to `O=S(=O)(Nc1cccnn1)c1ccc2c(c1)OCC[C@H]2c1ccc(C(F)(F)F)cc1-c1ccc(F)cn1`, the IC50 was more than 10 µM. Consider `CS(=O)(=O)CCc1cc(C(F)(F)F)ccc1[C@@H]1CCOc2cc(S(=O)(=O)Nc3ncc(F)cn3)ccc21`, for which the half-inhibitory concentration (IC50) was more than 10 µM. In the case of `COc1cc(C(F)(F)F)ccc1[C@H]1CCOc2cc(S(=O)(=O)Nc3ncccn3)ccc21`, the IC50 is more than 10 µM.

For `O=C1CCCN1c1cc(C(F)(F)F)ccc1[C@H]1CCOc2cc(S(=O)(=O)Nc3ncc(F)cn3)ccc21`, the IC50 is more than 10 µM. For `O=S(=O)(Nc1ncccn1)c1ccc2c(c1)OCC[C@H]2c1ccc(C(F)(F)F)cc1OC1COC1`, the IC50 is more than 10 µM.

On to `CS(=O)(=O)CCc1cc(C(F)(F)F)ccc1[C@@H]1CCOc2cc(S(=O)(=O)Nc3ncccn3)ccc21`, for which the IC50 is more than 10 µM.

Take `O=C(O)c1ccc(-c2cc(C(F)(F)F)ccc2[C@H]2CCOc3cc(S(=O)(=O)Nc4ncccn4)ccc32)cc1`: the IC50 is more than 10 µM. The same measure for `CS(=O)(=O)CCc1cc(C(F)(F)F)ccc1[C@H]1CCOc2cc(S(=O)(=O)Nc3ncc(F)cn3)ccc21`: more than 10 µM; for `O=S(=O)(Nc1ncc(F)cn1)c1ccc2c(c1)OCC[C@H]2c1ccc(C(F)(F)F)cc1OC1CCOCC1`: more than 10 µM; for `O=S(=O)(Nc1cccc(F)n1)c1ccc2c(c1)OCC[C@@H]2c1ccc(C(F)(F)F)cc1-n1cccn1`: more than 10 µM. With `CS(=O)(=O)CCc1cc(C(F)(F)F)ccc1[C@H]1CCOc2cc(S(=O)(=O)Nc3ccncn3)ccc21`, the IC50 is more than 10 µM. As for `O=S(=O)(Nc1ccncn1)c1ccc2c(c1)OCC[C@@H]2c1ccc(C(F)(F)F)cc1Cl` (racemic), the IC50 was more than 10 µM. Then `COCCc1cc(C(F)(F)F)ccc1[C@H]1CCOc2cc(S(=O)(=O)Nc3ccncn3)ccc21` (racemic), with more than 10 µM. On to `COCCc1cc(C(F)(F)F)ccc1[C@H]1CCOc2cc(S(=O)(=O)Nc3cccnn3)ccc21` (racemic), for which the half-inhibitory concentration (IC50) was more than 10 µM. Take `COCCOc1cc(C(F)(F)F)ccc1[C@H]1CCOc2cc(S(=O)(=O)Nc3ncc(F)cn3)ccc21` (racemic): the IC50 is more than 10 µM. The same measure for `O=C(O)c1ccc(-c2cc(C(F)(F)F)ccc2[C@H]2CCOc3cc(S(=O)(=O)Nc4cccc(F)n4)ccc32)cc1` (racemic): more than 10 µM; for `COCCc1cc(C(F)(F)F)ccc1[C@H]1CCOc2cc(S(=O)(=O)Nc3ncccn3)ccc21` (racemic): more than 10 µM; for `O=S(=O)(Nc1ncc(F)cn1)c1ccc2c(c1)OCC[C@@H]2c1ccc(C(F)(F)F)cc1CCF` (racemic): more than 10 µM.

Turning to `O=C1CCCN1c1cc(C(F)(F)F)ccc1[C@H]1CCOc2cc(S(=O)(=O)Nc3cccnn3)ccc21` (racemic), the IC50 is more than 10 µM.

Consider `O=C(O)c1ccc(-c2cc(C(F)(F)F)ccc2[C@H]2CCOc3cc(S(=O)(=O)Nc4cccnn4)ccc32)cc1` (racemic), for which the IC50 was more than 10 µM. As to `COCCCOc1cc(C(F)(F)F)ccc1[C@H]1CCOc2cc(S(=O)(=O)Nc3ncc(F)cn3)ccc21` (racemic), the IC50 was more than 10 µM. `COCCCCc1cc(C(F)(F)F)ccc1[C@H]1CCOc2cc(S(=O)(=O)Nc3ncc(F)cn3)ccc21` (racemic): the IC50 is more than 10 µM. In the case of `O=S(=O)(Nc1ncccn1)c1ccc2c(c1)OCC[C@@H]2c1ccc(C(F)(F)F)cc1Cl` (racemic), the IC50 was more than 10 µM. Consider `O=C1OCCN1c1cc(C(F)(F)F)ccc1[C@H]1CCOc2cc(S(=O)(=O)Nc3ncccn3)ccc21` (racemic), for which the 50% inhibitory concentration (IC50) is more than 10 µM. `O=C1CCCN1c1cc(C(F)(F)F)ccc1[C@H]1CCOc2cc(S(=O)(=O)Nc3ncccn3)ccc21` (racemic): the IC50 was more than 10 µM. Turning to `O=S(=O)(Nc1ccncn1)c1ccc2c(c1)OCC[C@@H]2c1ccc(C(F)(F)F)cc1CCF` (racemic), the IC50 was more than 10 µM.

As to `O=C1CCCN1c1cc(C(F)(F)F)ccc1[C@H]1CCOc2cc(S(=O)(=O)Nc3ccncn3)ccc21` (racemic), the IC50 is more than 10 µM. As for `O=S(=O)(Nc1ncc(F)cn1)c1ccc2c(c1)OCC[C@@H]2c1ccc(C(F)(F)F)cc1Cl` (racemic), the IC50 is more than 10 µM. With `COCCCc1cc(C(F)(F)F)ccc1[C@H]1CCOc2cc(S(=O)(=O)Nc3ncc(F)cn3)ccc21` (racemic), the IC50 is more than 10 µM.

Regarding `O=S(=O)(Nc1cccc(F)n1)c1ccc2c(c1)OCC[C@@H]2c1ccc(C(F)(F)F)cc1CCF` (racemic), the IC50 was more than 10 µM. For `O=S(=O)(Nc1cccnn1)c1ccc2c(c1)OCC[C@@H]2c1ccc(C(F)(F)F)cc1Cl` (racemic), the IC50 is more than 10 µM.
